Results on 2 compounds are retold here after patent publication US20110038948A1, “Methods of Reducing the Production of Reactive Oxygen Species and Methods of Screening or Identifying Compounds and Compositions that Reduce the Production of Reactive Oxygen Species” (UNIVERSITY OF TENNESSEE RESEARCH FOUNDATION, priority 2005, published 2011).

Common to all, as to type: cell-based, mouse
Test [1] concerns 3T3-L1 adipocytes. Put plainly: Cell proliferation / DNA synthesis in cultured adipocytes (CyQUANT). The following applies: 48 hours. As for the experimental part:
3T3-L1 preadipocytes were incubated at a density of 8000 cells/cm^2 (10 cm^2 dish) and grown in Dulbecco's modified Eagle's medium (DMEM) containing 10% FBS and antibiotics (adipocyte medium) at 37° C. in 5% CO2 in air. Confluent preadipocytes were induced to differentiate with a standard differentiation medium consisting of DMEM-F10 (1:1, vol/vol) medium supplemented with 1% FBS, 1 μM dexamethasone, IBMX (0.5 mM) and antibiotics (1% Penicillin-Streptomycin). Preadipocytes were maintained in this differentiation medium for 3 days and subsequently cultured in adipocyte medium. Cultures were re-fed every 2-3 days to allow 90% of cells to reach full differentiation before conducting chemical treatment. Chemicals were freshly diluted in adipocyte medium before treatment. Cells were washed with fresh adipocyte medium, re-fed with medium containing the different treatments, and incubated at 37° C. in 5% CO2 in air before analysis. Cell viability was measured via trypan blue exclusion. Cells were plated in DMEM with different treatment in duplicate in 96-well plates. After 48 h, a CyQUANT Cell Proliferation Kit (Molecular Probes, Eugene, Oreg.) was used following the manufacturer's protocol. a microplate fluorometer (Packard Instrument Company, Inc., Downers Grove, Ill.) was used to measure CyQUANT fluorescence. Cell viability was determined by Trypan blue exclusion examination.

Test [2] has as its system IL-6. In words: IL-6 expression in 3T3-L1 adipocytes. As for the experimental part: 3T3-L1 pre-adipocytes were incubated at a density of 8000 cells/cm^2 (10 cm^2 dish) and grown in Dulbecco's modified Eagle's medium (DMEM) containing 10% FBS and antibiotics (adipocyte medium) at 37° C. in 5% CO2 in air. Confluent pre-adipocytes were induced to differentiate with a standard differentiation medium consisting of DMEM-F10 (1:1, vol/vol) medium supplemented with 1% fetal bovine serum (FBS), 1 μM dexamethasone, isobutylmethylxanthine (IBMX) (0.5 mM) and antibiotics (1% Penicillin-Streptomycin). Pre-adipocytes were maintained in this differentiation medium for 3 days and subsequently cultured in adipocyte medium. Cultures were re-fed every 2-3 days to allow 90% cells to reach fully differentiation before conducting chemical treatment.
Cells were incubated in serum free medium overnight before chemical treatment. Chemicals were freshly diluted in adipocyte medium before treatment. […] Cell viability was measured via trypan blue exclusion.
Adipocyte and muscle 18s, TNFα, IL-6, IL-8, IL-15 and adiponectin were quantitatively measured using a smart cycler real-time PCR system (Cepheid, Sunnyvale, Calif.) with a TaqMan 1000 Core Reagent Kit (Applied Biosystems, Branchburg, N.J.). […] Reactions of quantitative RT-PCR for standards and unknown samples were also performed according to the instructions of Smart Cycler System (Cepheid, Sunnyvale, Calif.) and TaqMan Real Time PCR Core Kit (Applied Biosystems, Branchburg, N.J.). The mRNA quantitation for each sample was further normalized using the corresponding 18s quantitation. […]
Adipocyte and muscle 18s, CD14, TNFα, MIP, M-CSF, IL-6 and MCP-1 were quantitatively measured using a Smart Cycler Real Time PCR System (Cepheid, Sunnyvale, Calif.) with a TaqMan 1000 Core Reagent Kit (Applied Biosystems, Branchburg, N.J.). […] Reactions of quantitative RT-PCR for standards and unknown samples were also performed according to the instructions of Smart Cycler System (Cepheid, Sunnyvale, Calif.) and TaqMan Real Time PCR Core Kit (Applied Biosystems, Branchburg, N.J.). […]

For test [3], the system named is 3T3-L1 adipocytes. Put plainly: Cytokine antibody array of culture medium. As for the experimental part:
RAW 264 macrophages and 3T3-L1 preadipocytes (American Type Culture Collection) were incubated at a density of 8000 cells/cm2 (10 cm2 dish) and grown in Dulbecco's modified Eagle's medium (DMEM) containing 10% FBS and antibiotics (adipocyte medium) at 37° C. in 5% CO2 in air. Confluent 3T3-L1 preadipocytes were induced to differentiate with a standard differentiation medium consisting of DMEM-F10 (1:1, vol/vol) medium supplemented with 1% FBS, 1 μM dexamethasone, IBMX (0.5 mM) and antibiotics (1% Penicillin-Streptomycin). Preadipocytes were maintained in this differentiation medium for 3 days and subsequently cultured in adipocyte medium. Cultures were re-fed every 2-3 days to allow 90% cells to reach fully differentiation for 3T3-L1 adipocytes or grow to a confluence for RAW 264 before conducting chemical treatment.
Human adipocytes (Zen-Bio, Inc.), 3T3-L1 adipocytes, RAW264 macrophages were obtained and co-cultured by using transwell inserts with 0.4 μm porous membranes (Corning) to separate adipocytes and macrophages. All data are expressed as mean±SEM. Data were evaluated for statistical significance by analysis of one-way or two-way variance (ANOVA; means with different letter differ, p<0.05).
A TansSignal™ mouse cytokine antibody array kit (Panomics, Fremont, Calif.) was used to detect cytokine protein released in culture medium according to the manufacture's instruction. […]

As for `OO` [H2O2, hydrogen peroxide], in test [1] (H2O2 100 nmol/L, p<0.001), the “increase in total DNA of cultured cells” value was determined as 39%. For the same compound, the “increase in IL-6 expression” value in test [2] (100 nmol/L H2O2, 48 h, p<0.001) worked out at 167%.

With `C=C1/C(=C\C=C2/CCC[C@]3(C)[C@@H]([C@H](C)CCCC(C)(C)O)CC[C@@H]23)C[C@@H](O)C[C@@H]1O` [calcitriol, 1,25-(OH)2-D3], in test [1] (compound plus glucose 30 mmol/L), the “effect on glucose induced DNA synthesis” value is listed as “augmented”. For the same compound, the “effect on IL-6 expression” value in test [2] (10 nmol/L 1α, 25-(OH)2-D3, 48 h) is reported as “markedly increased”; in test [2] (calcitriol 10 nmol/L, 48 hours (Example 4)) it was “markedly stimulate”. In addition, the inflammatory cytokine production entry in test [3] (co-culture of 3T3-L1 adipocytes with macrophages) is recorded as “further stimulated”. In addition, in test [3] (differentiated 3T3-L1 adipocytes cultured alone), the “production of multiple inflammatory cytokine proteins” value is on record as “up-regulated”.
